According to patent publication US4410535A, “Aza-bicyclo-benzamide derivatives and pharmaceutical compositions and use thereof” (Beecham Group Limited, priority 1980, dated 1983):

What was measured:
Format in all cases: in vivo
Dopamine Receptor = assay: Dopamine receptor blocking activity in the CNS: inhibition of apomorphine induced climbing in the mouse; conditions: s.c. (table footnote), apomorphine 1 mg/kg s.c. induced climbing
[1] = system: vomiting response to apomorphine HCl; assay: Anti-emetic activity in the dog (apomorphine HCl induced vomiting); conditions: Canis lupus familiaris, sc, 30 min before apomorphine HCl 0.1 mg/kg s.c.
Method: I. Anti-emetic acitivity in the dog
Compounds were administered subcutaneously 30 minutes prior to administration of a standard dose of apomorphine HCl (0.1 mg/kg subcutaneously) and the vomiting response compared to that obtained when the same animals were dosed with apomorphine HCl and vehicle only.
(§1) The tests I and II shown above for anti-emetic and CNS activity respectively were used for the comparison testing of representative Compound 1 with 4-amino-5-chloro-2-methoxy-N-(3'β-[8'-benzyl]-8-azabicyclo[3.2.1]octyl)benzamide (A'). Compound A' was chosen because of the compounds specifically disclosed in European Patent Application No. 793029978 and U.S. Pat. No. 4,273,778 it has the best anti-emetic activity and is the structurally closest compound to compound 1. Other compounds of the Examples were also submitted to tests I and II.

[2] = system: gastric motility inhibited by 6,7-ADTN; assay: Gastric motility testing in the rat: reversal of the inhibitory effect of 6,7-ADTN; conditions: s.c., 10 minutes after 6,7-ADTN 1 mg/kg s.c.; conscious chronic gastric fistula rat
Method: III. Gastric Motility Testing in the rat
The compounds were tested for ability to reverse the inhibitory effect of 6,7-ADTN on gastric motility as recorded by an open tipped catheter in the conscious chronic gastric fistula rat. Administration of 1 mg/kg s.c. of 6,7-ADTN reduced basal gastric motor activity and this was reversed by the administration of 0.008 mg/kg s.c. of compound 1. administered 10 minutes after the 6,7-ADTN. […] For subcutaneous testing the compound was dissolved in water by the addition of tartaric acid (1/2 mole per mole of compound).

[3] = Therapeutic ratio for anti-emetic activity based upon CNS effects (tests I and II); conditions: relative to compound A'
Excerpt: as §1

Row | SMILES | CNS activity (ED50) (Dopamine Receptor) | ED50 [1] | dose reversing the 6,7-ADTN inhibition of gastric motor activity [2] | improvement of therapeutic ratio for anti-emetic activity based upon CNS effects, compared with compound A' [3]
1 | COc1cc(N)c(Cl)cc1C(=O)N[C@@H]1C[C@H]2CC[C@@H](C1)N2Cc1ccccc1 [Compound A', 4-amino-5-chloro-2-methoxy-N-(3'β-[8'-benzyl]-8-azabicyclo[3.2.1]octyl)benzamide, reference compound] | 0.0029 mg/kg | 0.0005 mg/kg |  | 
2 | COc1cc(N)c(S(C)(=O)=O)cc1C(=O)N[C@@H]1C[C@H]2CC[C@@H](C1)N2C [Compound 3, 4-Amino-2-methoxy-5-methylsulphonyl-N-[3β-(8-methyl-8-azabicyclo[3.2.1]octyl)]benzamide] | 80 mg/kg | 0.5 mg/kg |  | 
3 | COc1cc(N)c(S(C)(=O)=O)cc1C(=O)N[C@@H]1C[C@H]2CC[C@@H](C1)N2Cc1ccccc1 [Compound 1, 4-Amino-2-methoxy-5-methylsulphonyl-N-[3-β-(8-benzyl-8-azabicyclo[3.2.1]octyl)]benzamide] | 3.5 mg/kg | 0.002 mg/kg | 0.008 mg/kg | more than 300 times
4 | CCS(=O)(=O)c1cc(C(=O)N[C@@H]2C[C@H]3CC[C@@H](C2)N3Cc2ccccc2)c(OC)cc1N [Compound 2, 4-Amino-5-ethylsulphonyl-2-methoxy N-[3-β-(8-benzyl-8azabicyclo{3,2,1}octyl)]benzamide] | 3.5 mg/kg | 0.01 mg/kg |  | 
